Experiment: xn = mol fraction of the nth substance listed

CCCCCCCCCCCCCC(=O)OCC + CCC1CCCCC1
viscosity [mPa·s], 100 kPa
Conditions | x2 = 0.0998 | x2 = 0.2 | x2 = 0.3001 | x2 = 0.4002 | x2 = 0.5 | x2 = 0.6 | x2 = 0.6999 | x2 = 0.8 | x2 = 0.9
293.15 K | 4.251 | 3.768 | 3.305 | 2.865 | 2.44 | 2.053 | 1.709 | 1.387 | 1.105
298.15 K | 3.763 | 3.351 | 2.962 | 2.582 | 2.221 | 1.88 | 1.572 | 1.286 | 1.034
303.15 K | 3.361 | 3.011 | 2.672 | 2.34 | 2.022 | 1.726 | 1.45 | 1.199 | 0.972
308.15 K | 3.01 | 2.709 | 2.411 | 2.12 | 1.845 | 1.579 | 1.335 | 1.11 | 0.904
313.15 K | 2.694 | 2.432 | 2.18 | 1.925 | 1.685 | 1.454 | 1.234 | 1.031 | 0.839
318.15 K | 2.461 | 2.227 | 2 | 1.775 | 1.558 | 1.353 | 1.152 | 0.964 | 0.791
323.15 K | 2.242 | 2.032 | 1.829 | 1.628 | 1.436 | 1.251 | 1.071 | 0.9 | 0.736

Cc1cccc(N)c1 + CCCCCC
viscosity [mPa·s], 101.33 kPa
Conditions | x1 = 0.236 | x1 = 0.396 | x1 = 0.579 | x1 = 0.787
295.15 K | 0.46 | 0.69 | 0.95 | 1.54
305.15 K | 0.39 | 0.55 | 0.77 | 1.25

C=C1CCC2CC1C2(C)C (stereo unspecified) + Cc1ccccc1
viscosity [mPa·s], 101 kPa
Conditions | x2 = 0.2689 | x2 = 0.3867 | x2 = 0.4951 | x2 = 0.5953 | x2 = 0.6881 | x2 = 0.7744 | x2 = 0.8547 | x2 = 0.9298
303.15 K | 1.188 | 0.995 | 0.86 | 0.754 | 0.684 | 0.633 | 0.595 | 0.564
308.5 K | 1.112 | 0.93 | 0.803 | 0.703 | 0.642 | 0.595 | 0.565 | 0.536
313.15 K | 1.027 | 0.863 | 0.745 | 0.654 | 0.598 | 0.56 | 0.534 | 0.505

O=C(O)CC(O)C(=O)O (stereo unspecified) + C[C@H](N)C(=O)O
101 kPa, x2 = 0.5
Conditions | viscosity [mPa·s]
298.15 K | 475400
318.15 K | 32390

Oc1cccc2ccccc12 + CCCCO
viscosity [mPa·s], 101 kPa
Conditions | x1 = 0.04 | x1 = 0.08 | x1 = 0.12 | x1 = 0.16 | x1 = 0.2
293.15 K | 3.278 | 3.6 | 3.953 | 4.407 | 4.888
303.15 K | 2.489 | 2.719 | 2.974 | 3.265 | 3.61
313.15 K | 1.952 | 2.106 | 2.289 | 2.512 | 2.745
323.15 K | 1.56 | 1.685 | 1.816 | 1.966 | 2.14

O=C(O)CC(O)C(=O)O (stereo unspecified) + C[N+](C)(C)CC(=O)[O-]
Conditions | viscosity [mPa·s]
318.15 K, 101 kPa, x2 = 0.5 | 42170

NCCNCCN + CCCCCCO
viscosity [mPa·s], 101 kPa
Conditions | 298.15 K | 303.15 K | 308.15 K
x1 = 0.0573 | 5.116 | 4.247 | 3.626
x1 = 0.1064 | 5.533 | 4.59 | 3.929
x1 = 0.1567 | 5.928 | 4.857 | 4.134
x1 = 0.2089 | 6.207 | 5.066 | 4.274
x1 = 0.2683 | 6.373 | 5.168 | 4.367
x1 = 0.2986 | 6.429 | 5.206 | 4.393
x1 = 0.4054 | 6.424 | 5.195 | 4.362
x1 = 0.5082 | 6.261 | 5.038 | 4.22
x1 = 0.6024 | 5.991 | 4.851 | 4.058
x1 = 0.7078 | 5.825 | 4.666 | 3.925
x1 = 0.7906 | 5.648 | 4.568 | 3.857
x1 = 0.8419 | 5.594 | 4.524 | 3.828
x1 = 0.9102 | 5.589 | 4.493 | 3.81
x1 = 0.9579 | 5.579 | 4.478 | 3.801

CCCC[N+](CCCC)(CCCC)CCCC.[Br-] + OCCOCCO
viscosity [mPa·s]
Conditions | 293.15 K | 303.15 K | 313.15 K | 323.15 K
100 kPa, x1 = 0.2 | – | 265.6 | 165.5 | 92.86
101 kPa, x2 = 0.667 | 203.9 | 150.6 | 87.28 | 57.39

Oc1cccc(O)c1O + CC[N+](CC)(CC)CC.[Br-]
101.3 kPa, x2 = 0.333
Conditions | viscosity [mPa·s]
293.15 K | 46000
298.15 K | 32000
303.15 K | 23000
308.15 K | 16000
313.15 K | 10500
318.15 K | 7500
323.15 K | 5500

Cc1cccc(N)c1 + CC1CCCCC1
303.15 K, 101.33 kPa
Conditions | viscosity [mPa·s]
x1 = 0.204 | 0.79
x1 = 0.4 | 0.96
x1 = 0.6 | 1.25
x1 = 0.8 | 1.75

NCCN1CCNCC1 + NCCO.O=CO
viscosity [mPa·s], 100 kPa
Conditions | x2 = 0.2317 | x2 = 0.3408 | x2 = 0.4457 | x2 = 0.5468 | x2 = 0.6441 | x2 = 0.7379 | x2 = 0.8283
298.15 K | 130.1 | 250.1 | 379.1 | 466.9 | 462.4 | 357.8 | 264.9
303.15 K | 80.27 | 188.7 | 266.6 | 322.5 | 323.3 | 259 | 196.6
308.15 K | – | 136.2 | 191.3 | 230.5 | 234.9 | 192 | 149.1
313.15 K | – | 102.4 | 141.7 | 170 | 173.6 | 146.6 | 115.8
318.15 K | – | 78.62 | 106.8 | 127.9 | 131.8 | 113.7 | 91.74
323.15 K | – | 61.55 | 83.63 | 98.95 | 102.1 | 89.85 | 74.36

From the CheMixHub viscosity set
